# Measurements reported in patent publication US8258311B2, “Human protein tyrosine phosphatase inhibitors and methods of use” (Aerpio Therapeutics Inc., priority 2006, dated 2012).
# Legend:
# [1] = target: T1, PTP1B (Homo sapiens, UniProt P18031); assay: PTP1B inhibition (IC50); type: biochemical
# T1 sequence (P18031 1-435): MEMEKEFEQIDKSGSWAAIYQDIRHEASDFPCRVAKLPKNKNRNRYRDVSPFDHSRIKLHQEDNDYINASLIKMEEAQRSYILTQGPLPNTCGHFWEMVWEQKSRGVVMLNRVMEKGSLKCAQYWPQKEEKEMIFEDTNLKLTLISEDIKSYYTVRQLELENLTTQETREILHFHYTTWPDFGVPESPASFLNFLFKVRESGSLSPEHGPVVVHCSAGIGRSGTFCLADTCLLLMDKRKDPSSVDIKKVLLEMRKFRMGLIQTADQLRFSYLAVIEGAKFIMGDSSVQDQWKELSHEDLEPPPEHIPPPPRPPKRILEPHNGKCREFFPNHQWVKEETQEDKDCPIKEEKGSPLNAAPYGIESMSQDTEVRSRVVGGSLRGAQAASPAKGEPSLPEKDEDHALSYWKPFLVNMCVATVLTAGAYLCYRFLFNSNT
# [2] = target: HPTPβ (Homo sapiens, UniProt P23467); assay: HPTPβ inhibition (IC50); type: biochemical
# Sequence of HPTPβ (P23467 23-1997): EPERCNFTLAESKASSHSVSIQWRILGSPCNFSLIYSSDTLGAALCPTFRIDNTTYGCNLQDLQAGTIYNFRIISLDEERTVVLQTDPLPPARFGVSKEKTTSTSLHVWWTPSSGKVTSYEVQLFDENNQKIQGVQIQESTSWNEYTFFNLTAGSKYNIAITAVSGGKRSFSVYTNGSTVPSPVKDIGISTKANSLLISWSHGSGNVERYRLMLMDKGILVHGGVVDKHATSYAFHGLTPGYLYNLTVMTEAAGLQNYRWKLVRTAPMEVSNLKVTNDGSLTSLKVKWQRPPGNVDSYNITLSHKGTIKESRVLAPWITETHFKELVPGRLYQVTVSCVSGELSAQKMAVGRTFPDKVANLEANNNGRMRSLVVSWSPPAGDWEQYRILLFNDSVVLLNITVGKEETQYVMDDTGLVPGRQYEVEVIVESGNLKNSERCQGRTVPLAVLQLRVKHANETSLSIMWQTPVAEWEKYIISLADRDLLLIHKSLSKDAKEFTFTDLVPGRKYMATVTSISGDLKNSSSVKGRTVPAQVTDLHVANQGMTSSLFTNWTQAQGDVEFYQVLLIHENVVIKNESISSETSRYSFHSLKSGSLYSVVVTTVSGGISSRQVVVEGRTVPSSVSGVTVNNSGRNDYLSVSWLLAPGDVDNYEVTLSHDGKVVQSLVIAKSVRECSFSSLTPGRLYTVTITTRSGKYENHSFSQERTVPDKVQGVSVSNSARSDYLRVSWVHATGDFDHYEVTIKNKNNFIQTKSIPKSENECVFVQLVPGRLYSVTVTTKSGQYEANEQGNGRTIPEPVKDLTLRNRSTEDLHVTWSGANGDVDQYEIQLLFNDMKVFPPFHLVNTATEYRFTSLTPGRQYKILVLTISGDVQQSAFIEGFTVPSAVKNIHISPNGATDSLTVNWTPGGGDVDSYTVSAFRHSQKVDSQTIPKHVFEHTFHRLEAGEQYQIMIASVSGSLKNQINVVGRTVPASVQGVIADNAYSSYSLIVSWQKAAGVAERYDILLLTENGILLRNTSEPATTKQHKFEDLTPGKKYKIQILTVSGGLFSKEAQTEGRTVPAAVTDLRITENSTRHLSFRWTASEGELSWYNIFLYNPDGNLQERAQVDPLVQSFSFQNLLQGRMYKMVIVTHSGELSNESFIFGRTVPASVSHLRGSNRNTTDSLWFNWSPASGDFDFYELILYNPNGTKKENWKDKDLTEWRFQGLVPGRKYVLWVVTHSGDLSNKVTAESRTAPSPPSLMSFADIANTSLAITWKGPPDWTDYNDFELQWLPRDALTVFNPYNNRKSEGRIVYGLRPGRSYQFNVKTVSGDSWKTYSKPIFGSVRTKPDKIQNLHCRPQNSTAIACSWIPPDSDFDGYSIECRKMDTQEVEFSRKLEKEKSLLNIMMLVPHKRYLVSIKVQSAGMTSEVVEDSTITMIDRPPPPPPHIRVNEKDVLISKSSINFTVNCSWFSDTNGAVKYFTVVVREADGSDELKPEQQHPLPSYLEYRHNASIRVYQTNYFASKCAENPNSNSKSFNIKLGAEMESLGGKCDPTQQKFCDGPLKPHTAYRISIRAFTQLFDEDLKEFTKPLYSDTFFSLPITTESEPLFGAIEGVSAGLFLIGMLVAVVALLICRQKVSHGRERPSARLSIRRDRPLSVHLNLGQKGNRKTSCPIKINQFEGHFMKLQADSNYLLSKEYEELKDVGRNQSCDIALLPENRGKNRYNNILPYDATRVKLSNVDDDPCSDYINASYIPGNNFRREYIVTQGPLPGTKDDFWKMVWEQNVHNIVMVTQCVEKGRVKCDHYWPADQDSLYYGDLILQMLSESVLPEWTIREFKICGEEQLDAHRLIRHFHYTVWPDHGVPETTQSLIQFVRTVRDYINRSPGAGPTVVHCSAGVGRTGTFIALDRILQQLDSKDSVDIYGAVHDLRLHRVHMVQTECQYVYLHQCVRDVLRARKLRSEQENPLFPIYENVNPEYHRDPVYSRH
Molecule,IC50 [1] [nM],IC50 [2] [nM]
COC(=O)N[C@@H](Cc1ccccc1)C(=O)N[C@@H](Cc1ccc(NS(=O)(=O)O)cc1)c1csc(-c2ccco2)n1,5000,–
Cc1nc([C@H](Cc2ccc(NS(=O)(=O)O)cc2)NC(=O)OC(C)(C)C)cs1,18900,33
CCOC(=O)Cc1csc([C@H](Cc2ccc(NS(=O)(=O)O)cc2)NC(=O)OC(C)(C)C)n1,50000,167
4-((S)-2-(4-Ethylthiazol-2-yl)-2-{(S)-2-[2-(methoxycarbonylamino)-acetamido]-3-phenylpropanamido}ethyl)phenylsulfamic acid,299,–
"CC(C)(C)C(=O)N[C@@H](Cc1ccc(NS(=O)(=O)O)cc1)c1nc(-c2ccc3c(c2)OCCO3)cs1 [4-((S)-2-(4-(2,3-Dihydrobenzo[b][1,4]dioxin-6-yl)thiazol-2-yl)-2-pivalamidoethyl)phenylsulfamic acid]",38300,138
"COc1ccc(-c2csc([C@H](Cc3ccc(NS(=O)(=O)O)cc3)NC(=O)C(C)(C)C)n2)c(OC)c1 [4-((S)-2-(4-(2,4-Dimethoxyphenyl)thiazol-2-yl)-2-pivalamidoethyl)phenyl-sulfamic acid]",43100,86
COc1cccc(-c2csc([C@H](Cc3ccc(NS(=O)(=O)O)cc3)NC(=O)C(C)(C)C)n2)c1 [4-((S)-2-(4-(3-Methoxyphenyl)thiazol-2-yl)-2-pivalamidoethyl)phenylsulfamic acid],40100,110
CC(C)(C)OC(=O)N[C@@H](Cc1ccc(NS(=O)(=O)O)cc1)c1nc(-c2cccc(C(F)(F)F)c2)cs1 [4-((S)-2-(tert-Butoxycarbonylamino)-2-(4-(3-(trifluoromethyl)phenyl)thiazol-2-yl)ethyl)-phenyl sulfamic acid],11800,253
CC(C)(C)OC(=O)N[C@@H](Cc1ccc(NS(=O)(=O)O)cc1)c1nc(-c2ccsc2)cs1 [4-((S)-2-(tert-Butoxycarbonylamino)-2-(4-(thiophen-3-yl)thiazol-2-yl)ethyl)phenyl sulfamic acid],14600,45
CCc1csc([C@H](Cc2ccc(NS(=O)(=O)O)cc2)NC(=O)[C@H](Cc2ccccc2)NC(C)=O)n1 [4-[(S)-2-((S)-2-Acetamido-3-phenylpropanamido)-2-(4-ethylthiazol-2-yl)ethyl]phenylsulfamic acid],1970,1
CC(=O)N[C@@H](Cc1ccccc1)C(=O)N[C@@H](Cc1ccc(NS(=O)(=O)O)cc1)c1nc(C(C)(C)C)cs1 [4-[(S)-2-((S)-2-Acetamido-3-phenylpropanamido)-2-(4-tert-butylthiazol-2-yl)ethyl]phenylsulfamic acid],1520,0.3
COC(=O)N[C@@H](Cc1ccccc1)C(=O)N[C@@H](Cc1ccc(NS(=O)(=O)O)cc1)c1csc(C2CC2)n1 [4-{(S)-2-(2-Cyclopropylthiazol-4-yl)-2-[(S)-2-(methoxy-carbonylamino)-3-phenylpropanamido]ethyl}phenylsulfamic acid],1350,0.2
"COC(=O)N[C@@H](Cc1ccccc1)C(=O)N[C@@H](Cc1ccc(NS(=O)(=O)O)cc1)c1nc(C)c(C)s1 [4-{(S)-2-(4,5-Dimethylthiazol-2-yl)-2-[(S)-2-(methoxycarbonylamino)-3-phenyl-propanamido]ethyl}phenylsulfamic acid]",310,1
CCOC(=O)c1csc([C@H](Cc2ccc(NS(=O)(=O)O)cc2)NC(=O)[C@H](Cc2ccccc2)NC(=O)OC)n1 [4-{(S)-2-(4-(Ethoxycarbonyl)thiazol-2-yl)-2-[(S)-2-(methoxy-carbonylamino)-3-phenylpropanamido]ethyl}phenylsulfamic acid],70,0.2
COC(=O)N[C@@H](Cc1ccccc1)C(=O)N[C@@H](Cc1ccc(NS(=O)(=O)O)cc1)c1nc(C2CCCCC2)cs1 [4-{(S)-2-(4-Cyclohexylthiazol-2-yl)-2-[(S)-2-(methoxycarbonylamino)-3-phenyl-propanamido]ethyl}phenylsulfamic acid],1780,–
COC(=O)N[C@@H](Cc1ccccc1)C(=O)N[C@@H](Cc1ccc(NS(=O)(=O)O)cc1)c1nc(C2CC2)cs1 [4-{(S)-2-(4-Cyclopropylthiazol-2-yl)-2-[(S)-2-(methoxy-carbonylamino)-3-phenylpropanamido]ethyl}phenylsulfamic acid],300,0.01

Molecule,IC50 [1] [nM],IC50 [2] [nM]
CCc1nc([C@H](Cc2ccc(NS(=O)(=O)O)cc2)NC(=O)[C@H](Cc2ccccc2)NC(=O)OC)sc1C [4-{(S)-2-(4-Ethyl-5-methylthiazol-2-yl)-2-[(S)-2-(methoxy-carbonylamino)-3-phenyl-propanamido]ethyl}phenylsulfamic acid],1120,0.1
CCc1nc([C@H](Cc2ccc(NS(=O)(=O)O)cc2)NC(=O)[C@H](Cc2ccccc2)NC(=O)OC)sc1-c1ccccc1 [4-{(S)-2-(4-Ethyl-5-phenylthiazol-2-yl)-2-[(S)-2-(methoxy-carbonylamino)-3-phenyl-propanamido]ethyl}phenylsulfamic acid],390,–
CCc1csc([C@H](Cc2ccc(NS(=O)(=O)O)cc2)NC(=O)[C@@H](NC(=O)OC)C(C)C)n1 [4-{(S)-2-(4-Ethylthiazol-2-yl)-2-[(S)-2-(methoxycarbonylamino)-3-methylbutanamido]-ethyl}phenylsulfamic acid],1030,3
CCc1csc([C@H](Cc2ccc(NS(=O)(=O)O)cc2)NC(=O)[C@H](Cc2ccccc2)NC(=O)OC)n1 [4-{(S)-2-(4-Ethylthiazol-2-yl)-2-[(S)-2-(methoxycarbonylamino)-3-phenylpropanamido]ethyl}phenylsulfamic acid],490,0.162
CCc1csc([C@H](Cc2ccc(NS(=O)(=O)O)cc2)NC(=O)[C@H](CC(C)C)NC(=O)OC)n1 [4-{(S)-2-(4-Ethylthiazol-2-yl)-2-[(S)-2-(methoxycarbonylamino)-4-methylpentanamido]ethyl}phenylsulfamic acid],70,0.3
COC(=O)N[C@@H](Cc1ccccc1)C(=O)N[C@@H](Cc1ccc(NS(=O)(=O)O)cc1)c1nc(C(C)(C)C)cs1 [4-{(S)-2-(4-tert-Butylthiazol-2-yl)-2-[(S)-2-(methoxycarbonylamino)-3-phenylpropanamido]ethyl}phenylsulfamic acid],708,0.2
"COC(=O)N[C@@H](Cc1ccccc1)C(=O)N[C@@H](Cc1ccc(NS(=O)(=O)O)cc1)c1nc2c(s1)CCC2 [4-{(S)-2-(5,6-Dihydro-4H-cyclopenta[d]thiazol-2-yl)-2-[(S)-2-(methoxycarbonylamino)-3-phenylpropanamido]ethyl}phenylsulfamic acid]",180,1
CC(C)(C)OC(=O)N[C@@H](Cc1ccccc1)C(=O)N[C@@H](Cc1ccc(NS(=O)(=O)O)cc1)c1csc(-c2ccccc2)n1 [4-{(S)-2-(S)-2-(tert-Butoxycarbonylamino)-3-phenylpropanamido-2-(2-phenylthiazol-4-yl)}phenylsulfamic acid],905,–
COC(=O)N[C@@H](Cc1ccccc1)C(=O)N[C@@H](Cc1ccc(NS(=O)(=O)O)cc1)c1csc(-c2sccc2Cl)n1 [4-{(S)-2-[2-(3-Chlorothiophen-2-yl)thiazol-4-yl]-2-[(S)-2-(methoxycarbonylamino)-3-phenylpropanamido]ethyl}phenylsulfamic acid],950,–
COC(=O)N[C@@H](Cc1ccccc1)C(=O)N[C@@H](Cc1ccc(NS(=O)(=O)O)cc1)c1nc(-c2ccc(Cl)s2)cs1 [4-{(S)-2-[4-(5-Chlorothiophen-2-yl)thiazol-2-yl]-2-[(S)-2-(methoxycarbonylamino)-3-phenylpropanamido]ethyl}phenyl-sulfamic acid],370,–
COC(=O)N[C@@H](Cc1ccccc1)C(=O)N[C@@H](Cc1ccc(NS(=O)(=O)O)cc1)c1nc(-c2ccccc2)cs1 [4-{(S)-2-[(S)-2-(Methoxycarbonylamino)-3-phenylpropanamido]-2-(4-phenylthiazol-2-yl)ethyl}phenylsulfamic acid],597,–
COC(=O)N[C@@H](Cc1ccccc1)C(=O)N[C@@H](Cc1ccc(NS(=O)(=O)O)cc1)c1csc(-c2sccc2C)n1 [4-{(S)-2-[(S)-2-(Methoxycarbonylamino)-3-phenylpropanamido]-2-[2-(3-methylthiophen-2-yl)thiazol-4-yl]ethyl}phenylsulfamic acid],1090,–
COC(=O)N[C@@H](Cc1ccccc1)C(=O)N[C@@H](Cc1ccc(NS(=O)(=O)O)cc1)c1csc(-c2cccs2)n1 [4-{(S)-2-[(S)-2-(Methoxycarbonylamino)-3-phenylpropanamido]-2-[2-(thiophen-2-yl)thiazol-4-yl]ethyl}phenylsulfamic acid],604,–
COC(=O)N[C@@H](Cc1ccccc1)C(=O)N[C@@H](Cc1ccc(NS(=O)(=O)O)cc1)c1nc(-c2cccs2)cs1 [4-{(S)-2-[(S)-2-(Methoxycarbonylamino)-3-phenylpropanamido]-2-[4-(thiophen-2-yl)thiazol-2-yl]ethyl}phenylsulfamic acid],990,–
COC(=O)N[C@@H](Cc1ccccc1)C(=O)N[C@@H](Cc1ccc(NS(=O)(=O)O)cc1)c1csc(-c2ccccc2)n1 [4-{(S)-2-[(S)-2-(Methoxycarbonylamino)-3-phenylpropionamido]-2-(2-phenylthiazole-4-yl)ethyl}phenylsulfamic acid],508,–
Cc1csc([C@H](Cc2ccc(NS(=O)(=O)O)cc2)NC(=O)C(C)(C)C)n1 [(S)-4-(2-(4-Methylthiazol-2-yl)-2-pivalamidoethyl)phenyl-sulfamic acid],50000,–
